{
  "source": "patent US7795305B2",
  "about": "“CDDO-compounds and combination therapies thereof” (Board of Regents, The University of Texas System, priority 2000, dated 2010)",
  "key": {"primary AML cells [1]": {"system": "primary AML cells", "assay": "Monocytic differentiation (CD14) in primary AML", "type": "cell-based, human", "procedure": "(§1) Immunophenotyping. The PE-conjugated anti-CD11b, FITC-conjugated anti-CD14 monoclonal antibody (mAb) (Becton Dickinson) and PE-conjugated anti-CD95 mAb (PharMingen) were used at a 1/10 dilution.\n(§2) CDDO-Me. […] Effects of CDDO-Me were also tested on clonogenic AML cells."}, "HL-60-Dox cells": {"system": "HL-60-Dox cells", "assay": "Killing of MDR-1 expressing cells", "type": "cell-based, human"}, "HL-60 cells [2]": {"system": "HL-60 cells", "assay": "Differentiation by CD11b/CD14 flow cytometry", "type": "cell-based, human", "details": "for CD11b %: 7 days; for percentage of CD14 (+) live cells (FCM): no ligand", "procedure": "as §1\nEnhancement in cellular differentiation using combinations of CDDO with ATRA were tested. […] Cell differentiation was analyzed by flow cytometry (CD14/CD11b staining). […] These experiments were repeated. […]\nFinally, the inventors examined if CDDO-Me combined with ATRA would enhance differentiation. […] […] Next, combined treatment with CDDO-Me and RXR-specific ligand were tested for potentiation of anti-leukemic effects."}, "AML progenitors": {"system": "AML progenitors", "assay": "AML blast colony assay", "type": "cell-based, human", "procedure": "AML blast colony assay. A previously described method was used to measure AML blast colony formation. Briefly, 1×10^5 T-cell-depleted, nonadherent, low-density bone marrow cells were plated in 0.8% methylcellulose in Iscove's modified Dulbecco's medium (IMDM; Gibco Laboratories, Grand Island, N.Y.) supplemented with 10% fetal bovine serum and 15 ng/mL recombinant human granulocyte-macrophage colony-stimulating factor (hGM-CSF). CDDO or CDDO-Me was added at the initiation of cultures at concentrations ranging from 0.05 to 0.5 μg/mL. AML blast colonies were evaluated under a microscope on day 7 of culture in duplicate dishes.\n(§3) The effect of CDDO on clonogenic AML cells were tested. […] (FIG. 7).\nas §2"}, "normal CD34+ cells": {"system": "normal CD34+ cells", "assay": "CFU-GM of normal CD34+ cells (CFU-GEMM assay)", "type": "cell-based, human", "details": "for CFU-GM generated from normal CD34+ cells detected: n=3", "procedure": "CFU-Granulocyte-Erythroid-Macrophage-Megakaryocyte (CFU-GEMM) Assay. In three experiments, 2×10^5 CD34^+ cells isolated from normal bone marrow (n=1) or G-CSF-stimulated peripheral blood (n=2) were plated in 0.8% methylcellulose with IMDM, 1 U/mL human erythropoietin (Terry Fox Laboratories, Vancouver, Canada), and 50 ng/mL recombinant hGM-CSF. CDDO-Me was added at the initiation of cultures at concentrations ranging from 0.05 to 0.5 μg/mL.\nas §3, §2"}, "[3]": {"system": "U937 cells transduced with Bcl-2", "assay": "Cytotoxicity in Bcl-2 overexpressing cells", "type": "cell-based, human", "source_text": "The inventors also tested if overexpression of the anti-apoptotic protein Bcl-2 protected leukemic cells from CDDO-induced cytotoxicity. For these experiments U937 cells transduced with Bcl-2 were used with empty-vector containing counterparts as controls.\nTo study if the overexpression of Bcl-2 can protect leukemic cells from CDDO-Me-induced cytotoxicity the inventors used U937 cells transduced with Bcl-2 (Vrana et al., 1999) and their empty-vector containing counterparts. […] However, […] overexpressing Bcl-2 exerted almost complete protection from CDDO-Me killing as determined by annexin V-positivity, Phi-Phi-Lux and CMXRos staining. […] In contrast, in p53-negative HL-60 and HL-60-Dox cells Fas was only not induced but IETD-FMK could also not prevent CDDO-Me-induced cell death, indicating involvement of different mechanisms of apoptotic cell death in these cells (Owen-Schaub et al., 1994). […] Thus, induction of the FasL/Fas/caspase-8 pathway is not essential in the execution of CDDO-Me-induced cell death. Post-translational modifications of Bcl-2 are involved in the regulation of apoptosis by CDDO-Me. Thus, Bcl-2 phosphorylation is inhibited by CDDO-Me."}, "[4]": {"system": "bone marrow endothelial cells", "assay": "Matrigel tube-like endothelial structure formation", "type": "cell-based", "procedure": "CDDO. PPARγ nuclear receptor is expressed in bone marrow endothelial cells, and PPARγ ligands inhibit inhibited endothelial cell proliferation. […] The present inventors therefore tested the effects of CDDO in endothelial cell assays. The formation of tube-like endothelial structures was performed using Matrigel®, a basement membrane matrix extracted from the Engelbreth-Holm Swarm mouse sarcoma cell line. Bone marrow endothelial cells with recombinant angiogenic cytokines were incubated in the presence or absence of CDDO, and formation of tube-like endothelial structures was assessed by direct observation using a inverted contrast-phase microscope. […] Vascular endothelial cells (HUVEC) were grown in EBM-2 or EGM-2 media (Clonetics) containing VEGF, EGF, bFGF and IGF-1. The proliferation of endothelial cells was assessed by inverted contrast-phase microscope after 24 hrs of CDDO exposure in the indicated concentrations. CDDO-Me. The formation of tube-like endothelial structures that are associated with angiogenesis was analyzed using a Matrigel system (Kubota et al., 1988). Capillary-like structure formation of bone marrow endothelium was inhibited by CDDO-Me. […] Thus, CDDO-Me also has anti-angiogenic effects."}, "HL-60 cells [5]": {"system": "HL-60 cells", "assay": "Viable cell count of leukemic cells in suspension culture (Trypan blue)", "type": "cell-based, human", "details": "for IC50: HL-60", "procedure": "(§4) Suspension culture of leukemic cells. Leukemic cell lines were cultured at a density of 3.0×10^5 cells/mL, and AML mononuclear cells at 5×10^5 cells/mL in the presence or absence of indicated concentrations of CDDO-Me. Appropriate amounts of DMSO (final concentration<0.05%) was included as a control. For cytotoxicity studies, 1 μM ara-C was added to the cultures.\nCDDO. […] The percentage of proliferating cells were analyzed by FCM.\nCDDO-Me. […] Mechanism of growth inhibition was analyzed on cell cycle and apoptosis in HL-60 cells."}, "primary AML cells [6]": {"system": "primary AML cells", "assay": "Apoptosis in primary AML samples, subG1 DNA flow cytometry", "type": "cell-based, human", "procedure": "Subjects. Samples of bone marrow or peripheral blood were obtained for in vitro studies from patients with newly diagnosed or recurrent AML with high (>70%) blast count and from patients with myeloid transformation of chronic myeloid leukemia (CML). Informed consent was obtained following institutional guidelines. Mononuclear cells were separated by Ficoll-Hypaque (Sigma Chemical Co) density-gradient centrifugation.\nas §4\nCell kinetic and DNA fragmentation studies. The cell cycle kinetics was determined by staining cells with acridine orange for cellular DNA and RNA content followed by flow cytometeric analysis as described. […] Ten thousand events were stored in list mode for analysis. The percentage of cells in the “sub G1 peak” defined the proportion of apoptotic cells in the tested populations. […] Cell-cycle kinetics was analyzed using ModFit software (Verity Software House, Inc., Topsham, Me.). […]"}},
  "note": "Like-named read-outs stand apart in the source and are kept apart here.",
  "data": [
    {"smiles": "CC1(C)CCC2(C(=O)O)CCC3(C)C(C(=O)C=C4C5(C)C=C(C#N)C(=O)C(C)(C)C5CCC43C)C2C1", "note": "(centres unmarked) [CDDO, 2-cyano-3,12-dioxoolen-1,9-dien-28-oic acid]", "values": [
      {"measurement": "AML samples with induced monocytic differentiation (CD14)", "setting": "primary AML cells [1]", "result": "3/11"},
      {"measurement": "sensitivity of HL-60-Dox cells with high expression of the MDR-1 gene", "setting": "HL-60-Dox cells", "result": "sensitive to CDDO-induced killing"},
      {"measurement": "concentration needed to exert similar effect (CD11b+ as 0.1 μM CDDO-Me)", "setting": "HL-60 cells [2]", "result": 1, "unit": "µM"},
      {"measurement": "CD11b %", "setting": "HL-60 cells [2]; 0.1 μM (DMSO control 24.9)", "result": 45.0, "unit": "%"},
      {"measurement": "CD11b %", "setting": "HL-60 cells [2]; 0.3 μM", "result": 75.9, "unit": "%"},
      {"measurement": "percentage of CD14 (+) live cells (FCM)", "setting": "HL-60 cells [2]; CDDO 0.5 μM", "result": 36.7, "unit": "%"},
      {"measurement": "percentage of CD14 (+) live cells (FCM)", "setting": "HL-60 cells [2]; CDDO 1 μM", "result": 80.4, "unit": "%"},
      {"measurement": "concentration at which monocytic differentiation was induced", "setting": "HL-60 cells [2]; HL-60 cells", "result": "0.5 to 1.0", "unit": "µM"},
      {"measurement": "colony formation of AML progenitors reduced", "setting": "AML progenitors; 1 μM, n=6", "result": "58±4.6", "unit": "%"},
      {"measurement": "CFU-GM of normal CD34+ cells inhibited by", "setting": "normal CD34+ cells; at this concentration (n=3)", "result": "26.8±4.3", "unit": "%"},
      {"measurement": "protection by Bcl-2 overexpression (3-fold)", "setting": "[3]", "result": "did not protect cells from CDDO-killing"},
      {"measurement": "formation of capillary-like structures by bone marrow endothelium", "setting": "[4]", "result": "potently inhibited the formation of capillary-like structures"},
      {"measurement": "IC50", "setting": "HL-60 cells [5]; Homo sapiens, 72 and 96 hours, read-out: concentration of CDDO that reduced cell numbers by 50%", "result": 1, "unit": "nM"},
      {"measurement": "IC50", "setting": "HL-60 cells [5]; Homo sapiens, 48 hours, read-out: concentration of CDDO that reduced cell numbers by 50%", "result": 10, "unit": "nM"},
      {"measurement": "AML samples in which apoptosis was induced", "setting": "primary AML cells [6]; 1 μM", "result": "3 of 6"},
      {"measurement": "AML samples in which apoptosis was induced", "setting": "primary AML cells [6]; 5 μM", "result": "5 of 6"},
      {"measurement": "apoptosis in AML samples", "setting": "primary AML cells [6]; CDDO 1 μM, ara-C 1 μM, alone or combined, n=23 (DMSO control 27.7±3.7%)", "result": "41.2±4.4", "unit": "%"},
      {"measurement": "paired mean difference±SEM in apoptosis", "setting": "primary AML cells [6]; CDDO vs DMSO", "result": "13.5%±2.8"}
    ]},
    {"smiles": "COC(=O)[C@]12CCC(C)(C)C[C@H]1[C@H]1C(=O)C=C3[C@@]4(C)C=C(C#N)C(=O)C(C)(C)[C@@H]4CC[C@@]3(C)[C@]1(C)CC2", "note": "[CDDO-Me]", "values": [
      {"measurement": "AML samples with induced monocytic differentiation (CD14)", "setting": "primary AML cells [1]", "result": "2/5"},
      {"measurement": "sensitivity of HL-60-Dox cells with high expression of the MDR-1 gene", "setting": "HL-60-Dox cells", "result": "sensitive to CDDO-Me-induced killing"},
      {"measurement": "CD11b+ cells", "setting": "HL-60 cells [2]; 0.1 μM", "result": 86.6, "unit": "%"},
      {"measurement": "CD11b+ cells", "setting": "HL-60 cells [2]; 48 hrs, CDDO-Me 0.1 μM, ATRA 1 μM, alone or simultaneously (DMSO controls 40%)", "result": 67.4, "unit": "%"},
      {"measurement": "surviving colonies", "setting": "AML progenitors; 0.1 μM", "result": "46.7%±6.6"},
      {"measurement": "surviving colonies", "setting": "AML progenitors; 0.3 μM", "result": "27.5%±6.8"},
      {"measurement": "surviving colonies", "setting": "AML progenitors; 0.5 μM", "result": "8.8%±3.8"},
      {"measurement": "CFU-GM generated from normal CD34+ cells detected", "setting": "normal CD34+ cells; 0.1 μM", "result": "79±5.6", "unit": "%"},
      {"measurement": "CFU-GM generated from normal CD34+ cells detected", "setting": "normal CD34+ cells; 0.5 μM", "result": "63.4±1.1", "unit": "%"},
      {"measurement": "protection by Bcl-2 overexpression (3-fold)", "setting": "[3]", "result": "did not protect cells from CDDO-Me-killing"},
      {"measurement": "formation of capillary-like structures by bone marrow endothelium", "setting": "[4]", "result": "inhibited"},
      {"measurement": "viable cells recovered", "setting": "HL-60 cells [5]; 0.5 μM, 48 hrs", "result": "essentially no viable cells"},
      {"measurement": "IC50", "setting": "HL-60 cells [5]; read-out: IC50", "result": 400, "unit": "nM"},
      {"measurement": "paired mean difference to DMSO control (mean±SEM), apoptotic cells", "setting": "primary AML cells [6]; 0.1 μM", "result": "26.9%±10.8"},
      {"measurement": "paired mean difference to DMSO control (mean±SEM), apoptotic cells", "setting": "primary AML cells [6]; 0.5 μM", "result": "43.2%±5.2"},
      {"measurement": "AML samples in which apoptosis was induced", "setting": "primary AML cells [6]; 1 μM", "result": "5 of 6"},
      {"measurement": "AML samples in which apoptosis was induced", "setting": "primary AML cells [6]; 5 μM", "result": "6 of 6"},
      {"measurement": "samples with more than 90% apoptotic cells", "setting": "primary AML cells [6]; 5 μM", "result": "4/6"},
      {"measurement": "cell killing in AML samples", "setting": "primary AML cells [6]; CDDO-Me 1 μM, ara-C 1 μM, alone or combined, n=6 (DMSO control 24.9±7.4%)", "result": "50.5±15", "unit": "%"},
      {"measurement": "samples with dose-dependent increase in percentage of apoptotic cells", "setting": "primary AML cells [6]; lower concentrations", "result": "4/4"}
    ]}
  ]
}
